# Assay results reported in patent US20150374705A1, “Substances for treatment or relief of pain” (Shanghai Institues for Biological Sciences, priority 2012, published 2015).
# Entries after “also recorded” stand apart in the source; their conditions may differ. Like-named read-outs stand apart in the source and are kept apart here.
# Key:
# [1] = test system: CFA induced inflammatory pain model rats (heat pain); test: CFA induced inflammatory pain model, heat pain threshold; type: in vivo; conditions: rat, 3 mg/kg injection, 3 days after CFA, 1 hour after administration
# [2] = test system: SNI model rats (neuropathic pain); test: Spared nerve injury (SNI) model, neuropathic pain, mechanical pain threshold; type: in vivo; conditions: rat; for Neuropathic pain (SNI model), analgesic effect: 3 mg/kg subcutaneous, 14 days after SNI, 1 hour after administration
# Protocol: Male SD rats (200-250 g) were used, 6 per group in the cage. All the animals were placed under 12 hours light/cycle (i.e. 12 hours light and 12 hours dark in each day), free to food and water. All the experiments were conducted under the condition that the observers were blind to pharmaceutical treatment.
# Spared nerve injury model (SNI): 10% chloral hydrate was injected intraperitoneally to anesthetize rats. […] The muscle was longitudinally separated to expose the core of sciatic nerve and the branching below: tibial nerve, common peroneal nerve and sural nerve. The tibial nerve and common peroneal nerve were ligatured and cut and small sural nerve was retained, meanwhile preventing any injury. The muscle and skin were sutured layer by layer, and then antibiotics were injected intraperitoneally for antibacterial purpose. For detailed methods, please refer to Decosterd I and Woolf C J. Spared nerve injury: an animal model of persistent peripheral neuropathic pain. 2000 August; Pain 87(2):149-58.
# Method for detecting mechanical hyperalgesia in rats: firstly CFA solution was injected in the thenar of rats. After 24 hours, mechanical hyperalgesia quantitative detection was adopted to measure the paw withdrawal of rats to normal and harmless mechanical stimulation. Evaluation was conducted according to reference (Chaplan S R et al., Quantitative assessment of tactile allodynia in the rat paw. J Neurosci Methods. 1994 July; 53(1):55-63). In this method, the von Frey fibers with different bending force (equivalent to the range of 1-50 g force) were used to apply harmless mechanical stimulation. The rats were placed in organic glass box with metal mesh plate, and the von Frey fibers were applied on the surface of leg thenar. The von Frey fibers were applied vertically to the surface of thenar to generate the force that will trigger slight resistance to the leg. 2-3 seconds were maintained for every leg thenar. If the leg withdrew suddenly, positive records were recorded. The threshold was the mean of the weight that caused 50% paw withdrawal response (5-6 paw withdrawal/10 stimulations) in overall 10 stimulations.
# Compounds MRK 016, C2, C3, C4, C5, C6, C7, C8 or α5IA (A5I) were dissolved in 70% PGE400 (PGE400:water=70:30 in volume). For injection dose, MRK016 was 2 mg/kg body weight; A5I was 3 mg/kg body weight; C2, C3, C4, C5, C6, C7 and C8 were 3 mg/kg body weight.
# MRK016-M3 was dissolved in 90% PGE400 (PGE400:water=90:10 in volume). The doses were 10 mg/kg, 3 mg/kg, 1 mg/kg and 0.3 mg/kg, respectively for oral administration.
# The method for behavioral data statistics was unpaired t-test. *, p<0.05, represents significant difference.
# [3] = test system: CFA induced inflammatory pain model rats (mechanical pain); test: CFA induced inflammatory pain model, mechanical pain threshold; type: in vivo; conditions: rat, 3 mg/kg injection, 7 days after CFA, 1 hour after administration
# [4] = Tissue distribution, brain/plasma ratio by LC-MS; type: in vivo, rat; conditions: for Kp at 1 h: sc, 3 mg/kg, subcutaneous injection, 1 hour after injection; for Kp at 1 h / Kp: rat
# Protocol: The second method was to measure the tissue distribution of the substance to be measured in animal tissues. Firstly the candidate substance was administrated to animals by injection (or oral administration). The brain tissue and plasma tissue were extracted 0.25-2.0 hours after injection. liquid Chromatograph Mass SpectrometerL-MS was used to measure the concentration of the drug. If the brain/plasma ratio of the compound is less than 0.5, then the candidate substance is a potential drug for treating pain with fewer side effects.
# Meanwhile, the inventors detected the distribution of these compounds in the tissue of rats. Firstly the substances to be measured were subcutaneously injected into the body of animals. Then brain tissue and plasma tissue were extracted 1 hour after injection. Ls-MS was used to measure the concentration of drugs. If the brain/plasma ratio of the compound is less than 0.1, then the candidate substance is a potential drug for treating pain with fewer side effects.
# [5] = brain and plasma extracted 0.25-2.0 hours after injection, LC-MS
Compound,"CFA induced inflammatory pain model (heat pain), analgesic effect [1]","Neuropathic pain (SNI model), analgesic effect [2]","CFA induced inflammatory pain model (mechanical pan), analgesic effect [3]","Kp at 1 h ([4]; brain and plasma, LC-MS)",other results
Cc1ncn2c1Cn1ncnc1-c1cc(Br)ccc1-2,Significant analgesic effect,Significant analgesic effect,Significant analgesic effect,< 0.2,
FC(F)c1ncn2c1Cn1ncnc1-c1cc(I)ccc1-2,Significant analgesic effect,Significant analgesic effect,Significant analgesic effect,,
Cc1ncn2c1Cn1ncnc1-c1cc(I)ccc1-2,Significant analgesic effect,Significant analgesic effect,Significant analgesic effect,< 0.1,
Clc1ncn2c1Cn1ncnc1-c1cc(I)ccc1-2,Significant analgesic effect,Significant analgesic effect,Significant analgesic effect,< 0.1,
Clc1ccc2c(c1)-c1ncnn1Cc1c(Cl)ncn1-2,Significant analgesic effect,Significant analgesic effect,Significant analgesic effect,,"Kp at 1 h ([4]; in vivo, LC-MS): > 0.2"
FC(F)c1ccc2c(c1)-c1ncnn1Cc1c(Cl)ncn1-2,Significant analgesic effect,Significant analgesic effect,Significant analgesic effect,,
Cc1ncn2c1Cn1ncnc1-c1cc(C(F)F)ccc1-2,Significant analgesic effect,Significant analgesic effect,Significant analgesic effect,,
Cc1ncn2c1Cn1ncnc1-c1cc(Cl)ccc1-2,Significant analgesic effect,Significant analgesic effect,Significant analgesic effect,0.2,
"CC(C)(C)C1C(OCc2ccccn2)=NN2C(c3cc(CO)on3)=NN=CC12 (stereo not drawn) [Compound C2, (3-(3-tert-butyl-2-(2-pyridylmethoxyl)-3,3a-2H-pyrazolo[1,5-d][1,2,4]triazin-7-yl)isoxazole-5-yl)methanol]",,,,,"CFA induced inflammatory pain model (heat pain), analgesic effect ([1]; 3 mg/kg): efficiently treat chronic pain; also recorded: efficiently suppressed heat pain or mechanical pain response; Neuropathic pain (SNI model), analgesic effect ([2]; 3 mg/kg): efficiently treat pain; also recorded: efficiently suppressed neuropathic pain; CFA induced inflammatory pain model (mechanical pan), analgesic effect ([3]; 3 mg/kg): efficiently treat pain; also recorded: efficiently suppressed heat pain or mechanical pain response"
"CC(C)(C)C1C(OCc2cccnc2)=NN2C(c3cc(CO)on3)=NN=CC12 (stereo not drawn) [Compound C3, (3-(3-tert-butyl-2-(3-pyridylmethoxyl)-3,3a-2H-pyrazolo[1,5-d][1,2,4]triazin-7-yl)isoxazole-5-yl)methanol]",,,,,"CFA induced inflammatory pain model (heat pain), analgesic effect ([1]; 3 mg/kg): efficiently treat chronic pain; also recorded: efficiently suppressed heat pain or mechanical pain response; Neuropathic pain (SNI model), analgesic effect ([2]; 3 mg/kg): efficiently treat pain; also recorded: efficiently suppressed neuropathic pain; CFA induced inflammatory pain model (mechanical pan), analgesic effect ([3]; 3 mg/kg): efficiently treat pain; also recorded: efficiently suppressed heat pain or mechanical pain response"
"OCc1cc(-c2nnc3c4ccccc4c(OCc4cccnc4)nn23)no1 [Compound C6, {3-[6-(Pyridin-3-ylmethoxy)-[1,2,4]triazolo[3,4-a]phthalazin-3-yl]-isoxazol-5-yl}-methanol]",,,,,"CFA induced inflammatory pain model (heat pain), analgesic effect ([1]; 3 mg/kg): efficiently inhibit nociceptive response; also recorded: efficiently suppressed heat pain or mechanical pain response; Neuropathic pain (SNI model), analgesic effect ([2]; 3 mg/kg): efficiently inhibit nociceptive response; also recorded: efficiently suppressed neuropathic pain; CFA induced inflammatory pain model (mechanical pan), analgesic effect ([3]; 3 mg/kg): efficiently inhibit nociceptive response; also recorded: efficiently suppressed heat pain or mechanical pain response"
"OCc1cc(-c2nnc3c4ccccc4c(OCc4ccncc4)nn23)no1 [Compound C7, {3-[6-(Pyridin-4-ylmethoxy)-[1,2,4]triazolo[3,4-a]phthalazin-3-yl]isoxazol-5-yl}-methanol]",,,,,"CFA induced inflammatory pain model (heat pain), analgesic effect ([1]; 3 mg/kg): efficiently inhibit nociceptive response; also recorded: efficiently suppressed heat pain or mechanical pain response; Neuropathic pain (SNI model), analgesic effect ([2]; 3 mg/kg): efficiently inhibit nociceptive response; also recorded: efficiently suppressed neuropathic pain; CFA induced inflammatory pain model (mechanical pan), analgesic effect ([3]; 3 mg/kg): efficiently inhibit nociceptive response; also recorded: efficiently suppressed heat pain or mechanical pain response"
FC(F)c1ncn2c1Cn1ncnc1-c1cc(Br)ccc1-2 [drawing 27],,,,,"Passing blood brain barrier [4, 5]: slightly passing blood brain barrier; Kp ([4]; other: injection (or oral administration), brain and plasma extracted 0.25-2.0 hours after injection, LC-MS, read-out: brain/plasma ratio): < 0.5"
Clc1ncn2c1Cn1ncnc1-c1cc(Br)ccc1-2 [drawing 28],,,,,"Passing blood brain barrier [4, 5]: more slightly passing blood brain barrier; Kp ([4]; in vivo): < 0.5"
Clc1ncn2c1Cn1ncnc1-c1cc(Br)ccc1-2 [drawing 57],Significant analgesic effect,Significant analgesic effect,Significant analgesic effect,< 0.1,
FC(F)c1ncn2c1Cn1ncnc1-c1cc(Br)ccc1-2 [drawing 58],Significant analgesic effect,Significant analgesic effect,Significant analgesic effect,> 0.2,
NCC1(CC(=O)O)CCCCC1 [gabapentin],,,,,Suppression of neuropathic pain ([2]; 11 days after SNI model): efficiently suppressed neuropathic pain
